pIC50: −log10 of the molar value. Read-outs that look alike come from different tables or passages of the source.
Target: T1, Brugia malayi Protein disulfide isomerase (BmPDI) (Brugia malayi, UniProt A0A1S0S010)
T1 construct: gene pdi; recombinant 6XHis-tagged BmPDI expressed in E. coli
Assay: refolding of reduced denatured RNase A, RNA hydrolysis followed by absorbance at […] nm
Type: biochemical

| pIC50 (read-out: IC50) | Compound | pIC50 |
| --- | --- | --- |
| 4.13 | Cc1ccc(C(=O)Nc2ccc(S(=O)(=O)O)c3cc(S(=O)(=O)O)cc(S(=O)(=O)O)c23)cc1NC(=O)c1cccc(NC(=O)Nc2cccc(C(=O)Nc3cc(C(=O)Nc4ccc(S(=O)(=O)O)c5cc(S(=O)(=O)O)cc(S(=O)(=O)O)c45)ccc3C)c2)c1 [suramin] | – |
| 4.75 | O=C1C=CC(=C(c2ccc(O)cc2)c2ccc(O)cc2)C=C1 [aurin] | – |
| – | NC[C@H]1O[C@H](O[C@H]2[C@H](O[C@@H]3O[C@H](CO)[C@@H](O)[C@H]3O)[C@@H](O)[C@H](N)C[C@@H]2N)[C@H](N)[C@@H](O)[C@@H]1O [ribostamycin] | 4.45 |

— paper PMC5547380, “Molecular cloning and characterization of protein disulfide isomerase of Brugia malayi, a human lymphatic filarial parasite” (EXCLI Journal, 2017)
